How the values were obtained:
Assay in all cases: relative viability (nuclei count vs DMSO), 5 days (fraction); higher = more cells survive
CUDC-101 + Dasatinib = compound: C#Cc1cccc(Nc2ncnc3cc(OC)c(OCCCCCCC(=O)NO)cc23)c1 [CUDC-101] + Cc1nc(Nc2ncc(C(=O)Nc3c(C)cccc3Cl)s2)cc(N2CCN(CCO)CC2)n1 [Dasatinib] (partner 0.075 µM)
How it was run: (§1)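 Lung cancer cell lines were pin-tool dosed in 1536-well plates on the day after seeding, with either a lone drug or a fixed anchor-drug dose plus five library-drug doses (not always all listed) in √10 steps. Nuclei were counted on 4× images after 5 days. Relative viability is the ratio of treated-well to vehicle-well nuclei counts, with each value a median of duplicate plates.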

Vandetanib + Palbociclib = compound: COc1cc2/c(=N/c3ccc(Br)cc3F)nc[nH]c2cc1OCC1CCN(C)CC1 [Vandetanib] + CC(=O)c1c(C)c2cnc(Nc3ccc(N4CCNCC4)cn3)nc2n(C2CCCC2)c1=O [Palbociclib] (partner 0.5 µM)
How it was run: as §1

Vandetanib + Crizotinib = compound: COc1cc2/c(=N/c3ccc(Br)cc3F)nc[nH]c2cc1OCC1CCN(C)CC1 [Vandetanib] + C[C@@H](Oc1cc(-c2cnn(C3CCNCC3)c2)cnc1N)c1c(Cl)ccc(F)c1Cl [Crizotinib] (partner 1 µM)
How it was run: as §1

Vandetanib + Phenformin = compound: COc1cc2/c(=N/c3ccc(Br)cc3F)nc[nH]c2cc1OCC1CCN(C)CC1 [Vandetanib] + N=C(N)NC(=N)NCCc1ccccc1 [Phenformin] (partner 250 µM)
How it was run: as §1

Cell Line | relative viability (CUDC-101 + Dasatinib; first compound 0.01 µM) | relative viability (CUDC-101 + Dasatinib; first compound 0.03162 µM) | relative viability (CUDC-101 + Dasatinib; first compound 0.1 µM) | relative viability (CUDC-101 + Dasatinib; first compound 0.3162 µM) | relative viability (CUDC-101 + Dasatinib; first compound 1 µM) | relative viability (Vandetanib + Palbociclib; first compound 0.02 µM) | relative viability (Vandetanib + Palbociclib; first compound 0.06325 µM) | relative viability (Vandetanib + Palbociclib; first compound 0.2 µM) | relative viability (Vandetanib + Palbociclib; first compound 0.6325 µM) | relative viability (Vandetanib + Palbociclib; first compound 2 µM) | relative viability (Vandetanib + Crizotinib; first compound 0.02 µM) | relative viability (Vandetanib + Crizotinib; first compound 0.06325 µM) | relative viability (Vandetanib + Crizotinib; first compound 0.2 µM) | relative viability (Vandetanib + Crizotinib; first compound 0.6325 µM) | relative viability (Vandetanib + Crizotinib; first compound 2 µM) | relative viability (Vandetanib + Phenformin; first compound 0.02 µM) | relative viability (Vandetanib + Phenformin; first compound 0.06325 µM) | relative viability (Vandetanib + Phenformin; first compound 0.2 µM) | relative viability (Vandetanib + Phenformin; first compound 0.6325 µM) | relative viability (Vandetanib + Phenformin; first compound 2 µM)
HCC-78 | 0.401 | 0.293 | 0.373 | 0.28 | 0.213 | 0.443 | 0.485 | 0.479 | 0.518 | 0.446 | 0.318 | 0.352 | 0.328 | 0.331 | 0.257 | 0.744 | 0.638 | 0.662 | 0.664 | 0.627
HCC-366 | 0.631 | 0.632 | 0.6 | 0.715 | 0.526 | 0.423 | 0.41 | 0.453 | 0.394 | 0.351 | 0.617 | 0.569 | 0.608 | 0.609 | 0.518 | 0.596 | 0.603 | 0.62 | 0.586 | 0.505
HCC-827 | 0.317 | 0.154 | 0.116 | 0.135 | 0.13 | 0.479 | 0.468 | 0.227 | 0.263 | 0.166 | 0.983 | 0.93 | 0.851 | 0.242 | 0.192 | 0.441 | 0.367 | 0.319 | 0.157 | 0.165
HOP-62 | 0.678 | 0.656 | 0.692 | 0.631 | 0.438 | 0.421 | 0.437 | 0.431 | 0.509 | 0.412 | 1.03 | 0.919 | 0.695 | 1.01 | 1.11 | 0.689 | 0.664 | 0.487 | 0.728 | 0.703
IA-LM | – | – | – | – | – | – | – | – | – | – | 0.978 | 0.802 | 0.899 | 1.3 | 1.24 | – | – | – | – | –
LC-2-ad | 0.737 | 0.879 | 0.638 | 0.69 | 0.298 | 0.466 | 0.489 | 0.526 | 0.441 | 0.422 | 0.468 | 0.46 | 0.493 | 0.441 | 0.414 | 0.615 | 0.512 | 0.548 | 0.475 | 0.305
LCLC-97TM1 | 0.821 | 0.804 | 0.864 | 0.855 | 0.596 | 0.188 | 0.21 | 0.224 | 0.209 | 0.254 | 0.32 | 0.342 | 0.232 | 0.459 | 0.441 | 0.457 | 0.42 | 0.441 | 0.393 | 0.422
LCLC-103H | 0.524 | 0.384 | 0.451 | 0.478 | 0.46 | 0.439 | 0.521 | 0.388 | 0.478 | 0.406 | 1.03 | 1.01 | 1.12 | 1.05 | 1 | 0.316 | 0.319 | 0.357 | 0.344 | 0.31
LK-2 | 0.298 | 0.389 | 0.25 | 0.284 | 0.157 | 0.57 | 0.811 | 0.859 | 0.58 | 0.66 | 0.217 | 0.222 | 0.225 | 0.219 | 0.233 | 0.381 | 0.5 | 0.419 | 0.444 | 0.408
LOU-NH91 | 0.596 | 0.509 | 0.469 | 0.486 | 0.38 | 0.564 | 0.524 | 0.535 | 0.543 | 0.416 | 0.766 | 0.656 | 0.637 | 0.558 | 0.533 | 0.709 | 0.619 | 0.537 | 0.509 | 0.51
LU99A | 0.596 | 0.508 | 0.507 | 0.64 | 0.432 | 0.378 | 0.428 | 0.337 | 0.359 | 0.376 | 0.546 | 0.498 | 0.63 | 0.522 | 0.577 | 0.876 | 0.818 | 0.577 | 0.766 | 0.886
NCI-H522 | 0.931 | 0.758 | 0.928 | 0.842 | 0.596 | 0.89 | 0.909 | 1.14 | 0.961 | 0.986 | – | – | – | – | – | 0.691 | 0.623 | 0.66 | 0.585 | 0.712
NCI-H596 | 0.666 | 0.603 | 0.601 | 0.604 | 0.588 | – | – | – | – | – | 0.907 | 0.872 | 1.2 | 1.12 | 0.81 | 0.917 | 0.623 | 0.698 | 0.747 | 0.698
NCI-H1299 | – | – | – | – | – | – | – | – | – | – | 0.932 | 0.902 | 0.927 | 0.967 | 0.95 | – | – | – | – | –
NCI-H1395 | 0.418 | 0.385 | 0.438 | 0.434 | 0.363 | 0.635 | 0.602 | 0.641 | 0.609 | 0.567 | – | – | – | – | – | 0.472 | 0.429 | 0.427 | 0.439 | 0.458
NCI-H1563 | 0.439 | 0.465 | 0.448 | 0.488 | 0.429 | – | – | – | – | – | 0.887 | 0.835 | 0.794 | 0.852 | 0.858 | 0.679 | 0.629 | 0.695 | 0.616 | 0.625
NCI-H1623 | 0.561 | 0.501 | 0.429 | 0.676 | 0.486 | – | – | – | – | – | – | – | – | – | – | 0.574 | 0.525 | 0.574 | 0.526 | 0.622
NCI-H1648 | – | – | – | – | – | 0.27 | 0.245 | 0.2 | 0.284 | 0.24 | – | – | – | – | – | – | – | – | – | –
NCI-H1703 | – | – | – | – | – | – | – | – | – | – | 0.672 | – | 0.515 | 0.547 | 0.234 | – | – | – | – | –
NCI-H1793 | 0.393 | 0.371 | 0.342 | 0.415 | 0.371 | 0.325 | 0.305 | 0.302 | 0.296 | 0.261 | – | – | – | – | – | 0.371 | 0.355 | 0.328 | 0.299 | 0.292
NCI-H2342 | 0.316 | 0.301 | 0.325 | 0.298 | 0.241 | 0.525 | 0.507 | 0.518 | 0.477 | 0.569 | – | – | – | – | – | 0.596 | 0.496 | 0.592 | 0.576 | 0.477
SW 900 | 0.455 | 0.68 | 0.791 | 0.602 | 0.618 | 0.624 | 0.547 | – | 0.48 | 0.409 | – | – | – | – | – | 0.635 | 0.657 | 0.197 | 0.474 | 0.434
